Results taken from the supplement of paper PMC7840683.
± gives the standard deviation of the averaged measurements.

Tested on: HepaRG
Test: LDH release cytotoxicity, % of total lysis control; higher = more cytotoxic
Settings: 48 h
Summary of the method: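 Duplicate wells of single-lot HepaRG cells, grown on collagen I-coated 96-well plates, received eight-point half-log series of test chemicals with 100 µM as the top concentration. Exposure lasted 48 h in serum-free induction medium with 0.5% DMSO, while total lysis wells received 0.1% Triton X. Resorufin fluorescence (CytoTox-ONE, Tecan Safire) was used to quantify LDH leaked into 50 µL of spent medium. Values for percent cytotoxicity were normalized to on-plate vehicle and total lysis controls and averaged across the duplicates.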

Compound	LDH release cytotoxicity (0.03162 µM) [%]	LDH release cytotoxicity (0.1 µM) [%]	LDH release cytotoxicity (0.3162278 µM) [%]	LDH release cytotoxicity (1 µM) [%]	LDH release cytotoxicity (3.16228 µM) [%]	LDH release cytotoxicity (10 µM) [%]	LDH release cytotoxicity (31.6228 µM) [%]	LDH release cytotoxicity (100 µM) [%]	other results
O=C(Nc1ccccc1-c1ccc(Cl)cc1)c1cccnc1Cl [Boscalid]	–	–	–	–	–	–	–	–	LDH release cytotoxicity (0.0332039 µM): -0.385 ± 0.58%; LDH release cytotoxicity (0.105 µM): -0.471 ± 1.4%; LDH release cytotoxicity (0.332039 µM): -0.417 ± 1.1%; LDH release cytotoxicity (1.05 µM): -1.35 ± 1.3%; LDH release cytotoxicity (3.32039 µM): -1.2 ± 0.15%; LDH release cytotoxicity (10.5 µM): -0.348 ± 0.85%; LDH release cytotoxicity (33.2039 µM): -0.586 ± 0.92%; LDH release cytotoxicity (105 µM): 0.89 ± 1.2%
Cc1c(COC(=O)C2C(C=C(Cl)C(F)(F)F)C2(C)C)cccc1-c1ccccc1 (stereo not given) [Bifenthrin]	-1.61 ± 1.9	-2.22 ± 0.62	-2.26 ± 0.28	-2.12 ± 0.18	-1.77 ± 0.75	-1.98 ± 0.032	-2.13 ± 0.62	-0.496 ± 0.96	–
CCCCCCC(=O)OCC [Ethyl heptanoate]	-1.33 ± 0.12	-1.43 ± 1	-1.58 ± 0.63	-1.97 ± 0.28	-1.57 ± 0.64	-1.28 ± 1.6	0.37 ± 1	3.07 ± 1.3	–
CCOP(=S)(Oc1ccc([N+](=O)[O-])cc1)c1ccccc1 (stereo not given) [EPN]	-0.935 ± 0.29	-1.31 ± 0.65	-1.61 ± 1	-1.96 ± 0.085	-1.14 ± 0.37	-0.361 ± 0.0065	0.629 ± 0.14	5.51 ± 0.88	–
Cc1nc(C)nc(N2CC(C)N(c3ccnc(C(C)O)n3)C(C)C2)n1 (stereo not given)	–	–	–	–	–	–	–	–	LDH release cytotoxicity (0.01581 µM): -1.17 ± 0.94%; LDH release cytotoxicity (0.05 µM): -0.963 ± 0.92%; LDH release cytotoxicity (0.1581139 µM): -1.7 ± 1%; LDH release cytotoxicity (0.5 µM): -1.95 ± 0.69%; LDH release cytotoxicity (1.5811388 µM): -0.835 ± 0.61%; LDH release cytotoxicity (5 µM): -1.01 ± 0.15%; LDH release cytotoxicity (15.8114 µM): -0.652 ± 0.091%; LDH release cytotoxicity (50 µM): 0.767 ± 0.63%
c1ccc(Nc2ccccc2)cc1 [Diphenylamine]	-0.79 ± 0.82	-0.775 ± 0.35	-0.986 ± 0.56	-1.44 ± 0.19	-1.13 ± 0.35	-1 ± 0.56	0.0424 ± 0.62	3.57 ± 0.064	–
Nc1ccc(Cc2ccc(N)cc2)cc1 [4,4'-Diaminobiphenyl methane]	-0.659 ± 0.14	-2.27 ± 0.61	-2.24 ± 0.039	-2.78 ± 0.38	-2.52 ± 0.39	-2.46 ± 0.15	-1.8 ± 0.081	0.228 ± 0.61	–
CC(C)c1cccc(C(C)C)c1N1C(=O)c2ccc(O)cc2C1=O [2-(2,6-Diisopropylphenyl)-5-hydroxy-1H-isoindole-1,3-dione]	0.356 ± 0.042	0.0666 ± 0.077	-0.376 ± 0.57	-0.99 ± 0.87	-0.278 ± 0.47	-0.287 ± 0.3	-0.0632 ± 1	0.492 ± 1.2	–
O=P(OCCCl)(OCCCl)OCCCl [Tris(2-chloroethyl) phosphate]	0.00945 ± 0.48	-0.629 ± 0.15	-0.615 ± 0.025	-1.15 ± 0.9	-0.623 ± 0.18	-0.4 ± 0.39	0.187 ± 0.64	0.367 ± 0.4	–
O=C(O)[C@H](O)[C@@H](O)C(=O)O [L-Tartaric acid]	-3.55 ± 0.17	-2.52 ± 1.6	-2.17 ± 1.1	-2.97 ± 1.1	-2.2 ± 0.7	-0.465 ± 0.18	1.18 ± 0.94	6.93 ± 0.79	–
CC(C)N1C(=O)c2ccccc2NS1(=O)=O [Bentazone]	-0.772 ± 0.46	-0.547 ± 0.14	0.0696 ± 0.91	-0.283 ± 0.7	-0.149 ± 0.18	0.303 ± 0.12	-0.174 ± 0.19	2.45 ± 1.1	–
CCCCC(CC)COC(=O)CCCCCCCC(=O)OCC(CC)CCCC (stereo not given) [Bis(2-ethylhexyl) nonanedioate]	-1.88 ± 0.055	-2.868 ± 0.0068	-2.85 ± 0.81	-3 ± 0.21	-2.9 ± 0.15	-2.46 ± 0.2	-2.95 ± 0.69	-1.1 ± 0.36	–
C#CCOS(=O)OC1CCCCC1Oc1ccc(C(C)(C)C)cc1 (stereo not given) [Propargite]	-0.16 ± 0.35	-0.456 ± 1.3	-0.537 ± 0.23	0.246 ± 0.3	-0.49 ± 0.87	-0.575 ± 0.68	62.8 ± 4	83.83 ± 0.65	–
CN(C)c1ccc(Cc2ccc(N(C)C)cc2)cc1 [4,4'-Methylenebis(N,N-dimethylaniline)]	-0.47 ± 1.9	-1.28 ± 0.91	-1.73 ± 1	-1.6 ± 0.25	-1.29 ± 0.56	-1.04 ± 0.28	-0.536 ± 0.19	0.0839 ± 0.57	–
CCC(C)(CC)c1cc(NC(=O)c2c(OC)cccc2OC)on1 [Isoxaben]	-2.09 ± 1.5	-2.04 ± 0.44	-2.03 ± 0.16	-2.59 ± 0.72	-2.88 ± 0.57	-1.64 ± 0.83	-1.59 ± 0.14	11.4 ± 1.3	–
Nc1cccc2c(N)cccc12 [1,5-Naphthalenediamine]	-0.228 ± 0.2	-1.23 ± 0.16	-1.58 ± 0.12	-2.39 ± 0.034	-1.95 ± 0.3	-1.12 ± 0.45	-1.51 ± 0.7	0.44 ± 0.38	–
N#CCCCCC#N [Hexanedinitrile]	-0.442 ± 0.26	-0.226 ± 0.15	0.0594 ± 0.38	-1 ± 1	-0.445 ± 0.31	-0.461 ± 0.08	-0.494 ± 0.13	0.294 ± 0.37	–
Oc1ccccc1-c1ccccc1 [2-Phenylphenol]	–	–	–	–	–	–	–	–	LDH release cytotoxicity (0.0327296 µM): -1.34 ± 0.032%; LDH release cytotoxicity (0.1035 µM): -1.96 ± 0.059%; LDH release cytotoxicity (0.327296 µM): -0.0202 ± 0.57%; LDH release cytotoxicity (1.035 µM): -0.704 ± 0.57%; LDH release cytotoxicity (3.27296 µM): -1.21 ± 0.68%; LDH release cytotoxicity (10.35 µM): 0.0213 ± 0.73%; LDH release cytotoxicity (32.729574 µM): -0.237 ± 0.41%; LDH release cytotoxicity (103.5 µM): 0.858 ± 0.56%
Cc1ccc(N)cc1N [2,4-Diaminotoluene]	–	-0.98 ± 2.2	–	-2.17 ± 0.74	-1.86 ± 1.7	-1.56 ± 0.44	-1.29 ± 0.18	-0.394 ± 0.68	LDH release cytotoxicity (0.031623 µM): -1.84 ± 0.43%; LDH release cytotoxicity (0.316228 µM): -1.49 ± 1.2%
COC(=O)c1c(C(F)F)nc(C(F)(F)F)c(C2=NCCS2)c1CC(C)C [Thiazopyr]	-0.958 ± 2.2	-0.18 ± 0.21	-0.693 ± 0.24	-0.8 ± 0.35	-0.567 ± 0.015	-0.719 ± 0.32	-0.722 ± 0.28	-0.433 ± 0.5	–
